Reference: article PMC13077603, “Fluorine‐18‐Labeled Nucleotide Analogs Targeting Ecto‐5'‐Nucleotidase (CD73) for Positron Emission Tomography Imaging of Solid Tumors” (Angewandte Chemie (International Ed. in English), 2026)

How the values were obtained:
Format in all cases: biochemical
[1] = target: T1, Mouse membrane‐bound CD73 (membrane preparation of 4T1.2 breast cancer cell line) (Mus musculus, UniProt Q61503); test: CD73 enzyme inhibition assay, mouse membrane-bound CD73; conditions: membrane preparation of mouse 4T1.2 breast cancer cell line, Km 67.6 µM, substrate AMP (5 µM)
T1 construct: endogenous in cells; host or cells: 4T1.2 mouse breast cancer cell line, membrane preparation (as named in the result head)
T1 sequence (Q61503 29-576): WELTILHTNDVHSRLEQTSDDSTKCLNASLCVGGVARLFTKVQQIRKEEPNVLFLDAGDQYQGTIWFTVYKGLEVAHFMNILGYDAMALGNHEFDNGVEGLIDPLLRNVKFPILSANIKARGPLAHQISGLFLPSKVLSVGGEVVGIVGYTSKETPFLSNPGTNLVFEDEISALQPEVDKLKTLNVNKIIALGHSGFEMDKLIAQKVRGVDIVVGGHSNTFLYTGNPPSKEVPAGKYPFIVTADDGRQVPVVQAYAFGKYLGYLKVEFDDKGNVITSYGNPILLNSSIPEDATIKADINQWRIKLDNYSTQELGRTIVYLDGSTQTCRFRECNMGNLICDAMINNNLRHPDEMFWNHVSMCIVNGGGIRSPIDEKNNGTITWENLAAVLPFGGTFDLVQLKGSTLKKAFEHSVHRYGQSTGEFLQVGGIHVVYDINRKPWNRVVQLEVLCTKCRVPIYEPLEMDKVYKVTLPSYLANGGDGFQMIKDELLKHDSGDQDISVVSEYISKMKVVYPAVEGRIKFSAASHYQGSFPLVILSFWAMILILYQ
Description: Both compounds were evaluated for metabolic stability in mouse liver microsomes (MLM) and plasma protein binding (PPB) (Table 1).
(§1) The CD73 enzyme inhibition assay of recombinant soluble CD73, membrane-bound human CD73, soluble rat CD73 and mouse CD73 was performed as previously described.^[16,35^]

[2] = target: T2, Human membrane‐bound CD73 (membrane preparation of MDA‐MB‐231 cell line) (Homo sapiens, UniProt P21589); test: CD73 enzyme inhibition assay, human membrane-bound CD73; conditions: membrane preparation of human TNBC MDA‐MB‐231 cell line, Km 14.8 µM, substrate AMP (5 µM)
T2 construct: endogenous in cells; host or cells: MDA-MB-231 (human triple-negative breast cancer) membrane preparation
T2 sequence (P21589 27-574): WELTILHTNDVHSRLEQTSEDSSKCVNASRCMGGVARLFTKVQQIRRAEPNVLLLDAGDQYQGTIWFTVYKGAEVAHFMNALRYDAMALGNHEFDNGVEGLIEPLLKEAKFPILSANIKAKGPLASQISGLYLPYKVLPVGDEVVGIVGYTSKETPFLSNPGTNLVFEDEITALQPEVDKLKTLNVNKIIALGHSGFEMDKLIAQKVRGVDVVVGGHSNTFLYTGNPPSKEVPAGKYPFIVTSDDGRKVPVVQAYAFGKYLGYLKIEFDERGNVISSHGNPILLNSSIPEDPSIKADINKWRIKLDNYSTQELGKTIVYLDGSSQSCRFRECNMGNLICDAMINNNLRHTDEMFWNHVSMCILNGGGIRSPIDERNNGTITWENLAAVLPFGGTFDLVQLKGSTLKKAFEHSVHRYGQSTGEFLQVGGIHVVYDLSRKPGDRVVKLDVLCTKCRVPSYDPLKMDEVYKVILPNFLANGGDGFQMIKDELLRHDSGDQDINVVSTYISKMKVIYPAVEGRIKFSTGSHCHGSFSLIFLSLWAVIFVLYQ
Description: as §1

[3] = target: T3, CD73/AMPase activity in human breast tumor tissues (Homo sapiens, UniProt P21589); test: In situ enzyme histochemistry of AMPase activity in breast tumor cryosections; conditions: 10–50 nM inhibitor, 400 µM AMP, tissue cryosections
T3 construct: cryosections of breast tumor samples as well as sentinel lymph node samples were investigated; from tissue; host or cells: primary breast tumors and sentinel lymph nodes of two patients, 6 µm cryosections
T3 sequence (P21589 27-574): T2 sequence (P21589 27-574)
Description: Subsequent analysis of CD73‐mediated AMPase activities was performed by incubating tissue cryosections with AMP and CD73 inhibitors at different concentrations. Figure 2 depicts representative images of AMP‐specific staining in breast tumors from patient X (panel A) and patient Y (panel B), determined in the absence (control) and in the presence of 10 nM of the potent CD73 inhibitor 1.
FIGURE 3 Effects of CD73 inhibitors on AMPase activity in human breast tumor tissues. The effects of CD73 inhibitors on AMPase activity was determined in situ by incubating primary breast tumor samples from patient X (A) and patient Y (B) with 400 µM AMP and 1.5 mM Pb(NO3)2 in the absence (control) and the presence of the indicated concentrations of CD73 inhibitor. (C). Mean pixel intensities of brown staining due to the hydrolysis of AMP leading to Pb3(PO4)2 precipitation were quantified in the selected regions and expressed as arbitrary units (AU) (mean ± SEM; n = 2). Scale bars: 2 mm (A, B), and 500 µm (A, right insets).
For the localization of AMPase activities in human tumors, the lead nitrate-based enzyme histochemistry was employed. […] AMPase activity was determined by measuring AMP-specific brown staining intensities from the images using QuPath v.0.3.0 software. […] The average DAB intensity levels were measured as described earlier.^[39^] […]

Ki [1]: 47.8 nM
Ki [2]: 2.78 nM
Reduction of CD73/AMPase activity in the breast TME [3]: 60%–70
Structure (SMILES): CCCN(Cc1ccc(-c2cn(CCF)nn2)cc1)c1nc(Cl)nc2c1ncn2[C@@H]1O[C@H](COP(=O)(O)CP(=O)(O)O)[C@@H](O)[C@H]1O [compound 1]
